Columns and labels:
MAO-B [1] = molecular target: T1, MAO-B (Homo sapiens, UniProt P27338); experiment: In vitro MAO-B inhibition assay (fluorometric); type: biochemical; conditions: for inhibition at 10 µM: 10^–5 M; for inhibition at 1 µM: 10^–6 M; for inhibition at 0.1 µM: 10^–7 M; for inhibition at 0.01 µM: 10^–8 M; for inhibition at 0.001 µM: 10^–9 M
T1 sequence (P27338 1-520): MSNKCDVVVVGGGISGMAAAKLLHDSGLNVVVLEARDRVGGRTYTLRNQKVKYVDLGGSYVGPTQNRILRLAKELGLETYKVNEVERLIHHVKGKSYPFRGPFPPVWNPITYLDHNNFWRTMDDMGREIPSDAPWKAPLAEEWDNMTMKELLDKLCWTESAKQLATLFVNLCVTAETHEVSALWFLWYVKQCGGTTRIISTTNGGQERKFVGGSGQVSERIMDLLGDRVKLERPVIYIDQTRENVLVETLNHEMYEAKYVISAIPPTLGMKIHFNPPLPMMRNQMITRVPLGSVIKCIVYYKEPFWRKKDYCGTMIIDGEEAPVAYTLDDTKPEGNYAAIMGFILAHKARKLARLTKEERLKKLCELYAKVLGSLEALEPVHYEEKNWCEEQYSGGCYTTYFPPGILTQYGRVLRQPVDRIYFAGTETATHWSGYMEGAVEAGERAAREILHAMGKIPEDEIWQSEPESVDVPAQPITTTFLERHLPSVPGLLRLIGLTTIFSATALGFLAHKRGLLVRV

[2] = tested on: NIH/3T3 mouse embryonic fibroblast cell line; experiment: Cytotoxicity test (MTT); type: cell-based; conditions: NIH/3T3 mouse fibroblast healthy cell line
Method: (§1) The NIH/3T3 cells were incubated according to the manufacturer’s recommendations. In 96-well plates, NIH/3T3 cells were seeded at a density of 1 × 10^4 cells per well. The MTT test was conducted in line with the previously mentioned standards.[19],[22],[23],[28],[30]

AChE = AChE (Homo sapiens, UniProt P22303); experiment: biochemical
Chain of AChE (P22303 32-614): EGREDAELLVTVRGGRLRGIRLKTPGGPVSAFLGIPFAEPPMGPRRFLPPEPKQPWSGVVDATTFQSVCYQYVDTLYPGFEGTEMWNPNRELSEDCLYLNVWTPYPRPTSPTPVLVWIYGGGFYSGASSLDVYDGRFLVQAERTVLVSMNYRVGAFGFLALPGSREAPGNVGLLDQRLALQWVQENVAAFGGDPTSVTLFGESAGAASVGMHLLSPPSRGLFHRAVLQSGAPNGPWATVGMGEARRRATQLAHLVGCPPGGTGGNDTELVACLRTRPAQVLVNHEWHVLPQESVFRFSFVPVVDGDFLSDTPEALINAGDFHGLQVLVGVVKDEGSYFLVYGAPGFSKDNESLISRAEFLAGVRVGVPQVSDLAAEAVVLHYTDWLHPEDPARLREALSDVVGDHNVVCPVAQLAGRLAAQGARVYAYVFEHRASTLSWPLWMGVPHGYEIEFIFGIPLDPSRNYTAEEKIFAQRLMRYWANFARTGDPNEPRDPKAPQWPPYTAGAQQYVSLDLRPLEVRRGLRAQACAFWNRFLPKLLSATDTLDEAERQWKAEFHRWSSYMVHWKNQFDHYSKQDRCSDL
Method: (§2) According to the modified Ellman approach outlined in our team’s earlier work, the AChE and BChE inhibitory activities of the obtained compounds were evaluated.[18]−[21]

BChE = BChE (Homo sapiens, UniProt P06276); experiment: biochemical
Chain of BChE (P06276 29-602): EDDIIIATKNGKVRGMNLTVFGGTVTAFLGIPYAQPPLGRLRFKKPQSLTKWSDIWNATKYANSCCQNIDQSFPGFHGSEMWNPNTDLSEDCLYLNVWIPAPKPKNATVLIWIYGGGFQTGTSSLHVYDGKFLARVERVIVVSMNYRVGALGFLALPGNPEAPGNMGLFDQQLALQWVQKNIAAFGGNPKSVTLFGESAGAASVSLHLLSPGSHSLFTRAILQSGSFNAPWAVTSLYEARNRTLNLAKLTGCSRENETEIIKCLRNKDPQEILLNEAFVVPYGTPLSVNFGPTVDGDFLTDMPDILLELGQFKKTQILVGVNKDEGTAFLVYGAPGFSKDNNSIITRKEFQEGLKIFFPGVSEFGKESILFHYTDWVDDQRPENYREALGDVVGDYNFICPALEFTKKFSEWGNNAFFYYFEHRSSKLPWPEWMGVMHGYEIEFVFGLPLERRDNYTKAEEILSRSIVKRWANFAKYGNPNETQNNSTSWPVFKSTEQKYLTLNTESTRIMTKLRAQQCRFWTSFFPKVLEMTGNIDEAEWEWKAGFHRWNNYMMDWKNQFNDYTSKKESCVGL
Method: as §2

MAO-A [3] = molecular target: T2, MAO-A (Homo sapiens, UniProt P21397); experiment: In vitro MAO-A inhibition assay (fluorometric); type: biochemical
T2 sequence (P21397 1-527): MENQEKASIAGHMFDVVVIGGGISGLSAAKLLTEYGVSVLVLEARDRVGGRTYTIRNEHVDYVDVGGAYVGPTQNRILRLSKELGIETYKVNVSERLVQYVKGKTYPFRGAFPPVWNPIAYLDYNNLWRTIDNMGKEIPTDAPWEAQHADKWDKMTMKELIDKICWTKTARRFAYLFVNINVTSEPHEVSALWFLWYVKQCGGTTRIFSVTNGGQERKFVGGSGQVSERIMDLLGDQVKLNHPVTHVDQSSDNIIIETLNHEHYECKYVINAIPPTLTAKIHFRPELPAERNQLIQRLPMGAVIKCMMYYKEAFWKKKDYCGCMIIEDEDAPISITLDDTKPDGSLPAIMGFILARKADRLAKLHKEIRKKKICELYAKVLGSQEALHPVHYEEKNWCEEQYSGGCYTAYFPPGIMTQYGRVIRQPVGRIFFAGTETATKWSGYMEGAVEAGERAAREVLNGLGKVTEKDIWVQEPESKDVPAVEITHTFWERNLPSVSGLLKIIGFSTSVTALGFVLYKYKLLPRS

MAO-A [4] = molecular target: T2, MAO-A; experiment: Enzyme kinetics on MAO-A (Lineweaver–Burk); type: biochemical
Method: (§3) The experimental procedures used in the kinetic investigations were identical to those used in the inhibition experiments. […]. Acetylthiocholine iodide (ATC) and butyrylthiocholine iodide (BTC) solutions were utilized as the substrates for the ChE enzymes, with serial dilutions at six different concentrations (600, 300, 150, 75, 37.5, and 18.75 μM). The tyramine substrate solution (concentrations ranging from 20 to 0.625 μM) was produced for the MAO enzymes at six different concentrations. Separate measurements were conducted both with and without an inhibitor. Using the Microsoft Office Excel 2013 program, the resulting absorbance values were compared to various substrate concentrations, and Lineweaver–Burk plots were created.[19]−[22]
(§4) The absorbance data from the experiments and the substrate concentrations were used to generate Lineweaver–Burk plots. The graphic’s x-axis stands for 1/[S] […] […]. The intersection of these four lines on the diagram was used to define the type of substrate and inhibitor reaction against the enzyme.
(§5) Reversible and irreversible inhibition of enzymes are the two categories that inhibition is commonly subdivided into. In irreversible inhibition, the inhibitor either creates a recalcitrant complex structure or establishes a covalent bond with the enzyme. […]

[5] = DPPH free-radical scavenging activity assay; conditions: serial dilution 10^–3–10^–9 M; read-out: IC50 on DPPH antioxidant activity
Method: This approach is based on evaluating the free-radical scavenging abilities of the stable 1,1-diphenyl-2-picrylhydrazyl (DPPH) radical. To create the DPHH solution, 9.86 mg of DPPH was weighed and diluted to 25 mL with methanol. The test wells were then filled with 100 μL of the DPPH solution and 100 μL of the test solutions. Only 200 μL of methanol was used for the blank reading, while the control reading required the usage of 100 μL each of methanol and the DPPH solution. Following incubation, a spectrophotometric measurement at 517 nm was carried out.[26],[27]

Cytotoxicity test (MTT) = type: cell-based; conditions: NIH/3T3 mouse embryonic fibroblast cells (ATCC CRL-1658), NIH/3T3 mouse fibroblast healthy cell line
Method: as §1

Beta Amyloid 1–42 (Aβ42) = molecular target: T3, Beta Amyloid 1–42 (Aβ42) (Homo sapiens, UniProt P05067); experiment: Beta Amyloid 1–42 (Aβ42) inhibitor screening assay; type: biochemical; conditions: for inhibition at 100 µM: 10^–4 M
T3 construct: The Beta Amyloid 1–42 (Aβ42) Ligand Screening Assay kit; purchased BioVision, Milpitas, CA
T3 sequence (P05067 672-713 limits assumed): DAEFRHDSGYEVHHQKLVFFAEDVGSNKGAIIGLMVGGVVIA
Source text: The Beta Amyloid 1–42 (Aβ42) Ligand Screening Assay kit (BioVision, Milpitas, CA) technique based on the fluorometric approach served as the basis for the experimental process.[21],[28],[29]

MAO-B [6] = molecular target: T1, MAO-B; experiment: Enzyme kinetics on MAO-B (Lineweaver–Burk); type: biochemical
Method: as §3, §4, §5

[7] = read-out: % β-amyloid plaque inhibition

## COc1cc2c(cc1OC)C(=O)C(=Cc1ccc(NC(=O)CN3CCN(CCN(C)C)CC3)cc1)C2 [D24]
MAO-B [1]; 10^–3 M
  human MAO-B inhibition (%): 75.628 ± 1.426%
MAO-B [1]; 10^–4 M
  human MAO-B inhibition (%): 46.324 ± 0.521%
[2]
  IC50: 18640 ± 119 nM
AChE
  IC50: 46.9 ± 1.9 nM
AChE; 10^–3 M
  human AChE inhibition (%): 93.224 ± 1.719%
AChE; 10^–4 M
  human AChE inhibition (%): 90.486 ± 1.298%
AChE; 10^–5 M
  human AChE inhibition (%): 82.415 ± 1.102%
AChE; 10^–6 M
  human AChE inhibition (%): 72.846 ± 1.267%
AChE; 10^–7 M
  human AChE inhibition (%): 63.963 ± 1.088%
AChE; 10^–8 M
  human AChE inhibition (%): 41.281 ± 0.623%
AChE; 10^–9 M
  human AChE inhibition (%): 18.773 ± 0.411%
BChE; 10^–3 M
  human BChE inhibition (%): 97.932 ± 2.016%
BChE; 10^–4 M
  human BChE inhibition (%): 49.401 ± 0.559%
MAO-A [3]; 10^–3 M
  human MAO-A inhibition (%): 64.076 ± 0.323%
MAO-A [3]; 10^–4 M
  human MAO-A inhibition (%): 25.257 ± 0.621%

## CCCN(C)CC(=O)Nc1ccc(/C=C2\Cc3cc(OC)ccc3C2=O)cc1 [D28]
MAO-B [1]
  IC50: 40.9 ± 1.9 nM
  inhibition at 10 µM: 80.5 ± 1.01%
  inhibition at 1 µM: 75.2 ± 1.08%
  inhibition at 0.1 µM: 67 ± 0.958%
  inhibition at 0.01 µM: 41.5 ± 0.547%
  inhibition at 0.001 µM: 18.8 ± 0.421%
MAO-B [1]; 10^–3 M
  inhibition at 1000 µM: 92.6 ± 1.33%
MAO-B [1]; 10^–4 M
  inhibition at 100 µM: 89.3 ± 1.24%
MAO-A [4]; Lineweaver–Burk plots
  type of inhibition of MAO-A: noncompetitive inhibition
MAO-A [4]; secondary plot of Lineweaver–Burk data, read-out: steady-state inhibition constant (Ki), MAO-A
  Ki: 107 nM
[5]
  IC50: 210 ± 10 nM
Cytotoxicity test (MTT)
  IC50: 6520 ± 175 nM
Beta Amyloid 1–42 (Aβ42); 10^–3 M, read-out: % β-amyloid plaque inhibition
  inhibition at 1000 µM: 82.7 ± 1.68%
Beta Amyloid 1–42 (Aβ42); [7]
  inhibition at 100 µM: 75.6 ± 1.04%
Beta Amyloid 1–42 (Aβ42); read-out: IC50 on β-amyloid plaque aggregation
  IC50: 147 ± 5.3 nM
AChE
  IC50: 24.8 ± 1 nM
AChE; 10^–3 M
  inhibition at 1000 µM: 98.6 ± 1.21%
AChE; 10^–4 M
  inhibition at 100 µM: 95.3 ± 1.31%
AChE; 10^–5 M
  inhibition at 10 µM: 92.8 ± 1.03%
AChE; 10^–6 M
  inhibition at 1 µM: 87.1 ± 1.06%
AChE; 10^–7 M
  inhibition at 0.1 µM: 72 ± 0.958%
AChE; 10^–8 M
  inhibition at 0.01 µM: 36 ± 0.623%
AChE; 10^–9 M
  inhibition at 0.001 µM: 19.4 ± 0.455%
BChE; 10^–3 M
  inhibition at 1000 µM: 61.3 ± 0.997%
BChE; 10^–4 M
  inhibition at 100 µM: 36.6 ± 0.667%
MAO-A [3]
  IC50: 111 ± 4.7 nM
MAO-A [3]; 10^–3 M
  inhibition at 1000 µM: 89.6 ± 1.29%
MAO-A [3]; 10^–5 M
  inhibition at 10 µM: 72.7 ± 1.11%
MAO-A [3]; 10^–6 M
  inhibition at 1 µM: 63.4 ± 1.08%
MAO-A [3]; 10^–7 M
  inhibition at 0.1 µM: 59 ± 0.895%
MAO-A [3]; 10^–8 M
  inhibition at 0.01 µM: 39.2 ± 0.714%
MAO-A [3]; 10^–9 M
  inhibition at 0.001 µM: 18.7 ± 0.521%
MAO-A [3]; ratio of IC50 values
  fold stronger MAO-A inhibition compared to moclobemide: 50 ×

## COc1ccc2c(c1)C/C(=C\c1ccc(NC(=O)CN(C)CCCN(C)C)cc1)C2=O [D37]
MAO-B [1]
  IC50: 31.2 ± 0.8 nM
  inhibition at 10 µM: 85.5 ± 1.12%
  inhibition at 1 µM: 78.3 ± 1.07%
  inhibition at 0.1 µM: 72.2 ± 1.1%
  inhibition at 0.01 µM: 40.1 ± 0.561%
  inhibition at 0.001 µM: 18.2 ± 0.418%
MAO-B [1]; 10^–3 M
  inhibition at 1000 µM: 98.4 ± 1.63%
MAO-B [1]; 10^–4 M
  inhibition at 100 µM: 91.6 ± 1.24%
[5]
  IC50: 179 ± 7 nM
MAO-B [6]; Lineweaver–Burk plots
  type of inhibition of MAO-B: noncompetitive inhibition
MAO-B [6]; secondary plot of Lineweaver–Burk data, read-out: steady-state inhibition constant (Ki), MAO-B
  Ki: 29.7 nM
Cytotoxicity test (MTT)
  IC50: 2290 ± 136 nM
Beta Amyloid 1–42 (Aβ42); [7]
  inhibition at 100 µM: > 50%
AChE
  IC50: 48.2 ± 1.7 nM
AChE; 10^–3 M
  inhibition at 1000 µM: 92.5 ± 1.57%
AChE; 10^–4 M
  inhibition at 100 µM: 87.6 ± 1.68%
AChE; 10^–5 M
  inhibition at 10 µM: 83.5 ± 1.23%
AChE; 10^–6 M
  inhibition at 1 µM: 75.1 ± 1.08%
AChE; 10^–7 M
  inhibition at 0.1 µM: 61.5 ± 0.965%
AChE; 10^–8 M
  inhibition at 0.01 µM: 39.5 ± 0.489%
AChE; 10^–9 M
  inhibition at 0.001 µM: 19.7 ± 0.508%
BChE
  IC50: 83.9 ± 3.4 nM
BChE; 10^–3 M
  inhibition at 1000 µM: 94.2 ± 1.39%
BChE; 10^–4 M
  inhibition at 100 µM: 89.7 ± 1.25%
BChE; 10^–5 M
  inhibition at 10 µM: 82.7 ± 1.01%
BChE; 10^–6 M
  inhibition at 1 µM: 71.4 ± 1.35%
BChE; 10^–7 M
  inhibition at 0.1 µM: 59.3 ± 0.754%
BChE; 10^–8 M
  inhibition at 0.01 µM: 32.5 ± 0.355%
BChE; 10^–9 M
  inhibition at 0.001 µM: 18.5 ± 0.471%
MAO-A [3]; 10^–3 M
  inhibition at 1000 µM: 96.51 ± 0.736%
MAO-A [3]; 10^–4 M
  inhibition at 100 µM: 37.8 ± 0.96%

Reference: paper PMC9774391 (ACS Omega, 2022)
